From US11229623B2 (GlaxoSmithKline Intellectual Property (No.2) Limited, priority 2016, dated 2022)
pIC50: −log10 of the molar value.

Biological target: T1, human TRPV4 (Homo sapiens, UniProt Q9HBA0)
T1 construct: expressed in transfected cells; host or cells: BHK/AC9 cells transduced with BacMam virus
Assay: FLIPR assay for hTRPV4 expressed in BHK cells: inhibition of Agonist Compound-induced calcium signal
Format: cell-based
Conditions: hTRPV4 in BHK/AC9 cells, FLIPR calcium signal, agonist at EC80; reported as range class; read-out: IC50
Method in brief: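 BHK/AC9 cells transduced with BacMam human TRPV4 (MOI 78), plated 15,000 per well and cultured 24 h at 37° C. Loaded with 2 μM Fluo-4 AM plus 500 μM Brilliant Black in HBSS for 1-1.5 h at room temperature in the dark; intracellular calcium signal read by FLIPR fluorescence.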

T1 sequence (Q9HBA0 whole entry): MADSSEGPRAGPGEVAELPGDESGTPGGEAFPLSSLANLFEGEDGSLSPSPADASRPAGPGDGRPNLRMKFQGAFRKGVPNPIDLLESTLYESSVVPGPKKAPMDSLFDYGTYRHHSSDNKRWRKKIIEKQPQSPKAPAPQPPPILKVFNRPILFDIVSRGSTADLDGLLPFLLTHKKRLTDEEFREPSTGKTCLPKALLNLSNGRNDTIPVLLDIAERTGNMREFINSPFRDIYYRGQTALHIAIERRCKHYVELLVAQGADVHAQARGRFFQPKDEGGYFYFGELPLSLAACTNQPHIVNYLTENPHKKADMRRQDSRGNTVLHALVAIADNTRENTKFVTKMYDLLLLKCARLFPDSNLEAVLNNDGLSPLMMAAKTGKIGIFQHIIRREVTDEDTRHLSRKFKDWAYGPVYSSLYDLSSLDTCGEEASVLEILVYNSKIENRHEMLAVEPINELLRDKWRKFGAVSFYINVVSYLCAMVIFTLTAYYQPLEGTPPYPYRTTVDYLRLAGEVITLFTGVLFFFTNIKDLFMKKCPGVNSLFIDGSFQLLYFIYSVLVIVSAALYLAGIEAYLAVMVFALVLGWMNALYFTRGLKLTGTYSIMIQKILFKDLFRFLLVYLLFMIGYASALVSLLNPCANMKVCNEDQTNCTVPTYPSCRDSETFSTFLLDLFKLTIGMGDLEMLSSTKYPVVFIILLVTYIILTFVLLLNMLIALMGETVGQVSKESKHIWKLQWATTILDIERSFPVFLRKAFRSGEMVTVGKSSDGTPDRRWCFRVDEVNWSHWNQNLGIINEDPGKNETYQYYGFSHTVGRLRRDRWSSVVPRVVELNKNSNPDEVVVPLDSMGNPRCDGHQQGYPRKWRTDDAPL

pIC50 | Structure (SMILES)
7.00 to 8.00 | Cc1nc(C(F)(F)F)c(S(=O)(=O)N2C[C@H](Oc3ccc(C#N)c(F)c3)[C@](O)(CO)C2)s1 [Example 87, 2-fluoro-4-(((3S,4R)-4-hydroxy-4-(hydroxymethyl)-1-((2-methyl-4-(trifluoromethyl)thiazol-5-yl)sulfonyl)pyrrolidin-3-yl)oxy)benzonitrile]
7.00 to 8.00 | N#Cc1ccc(O[C@H]2CN(S(=O)(=O)c3sc(Cl)nc3Cl)C[C@@]2(O)CO)cc1F [Example 88, 4-(((3S,4R)-1-((2,4-dichlorothiazol-5-yl)sulfonyl)-4-hydroxy-4-(hydroxymethyl)pyrrolidin-3-yl)oxy)-2-fluorobenzonitrile]
7.00 to 8.00 | Cn1ncc(Cl)c1S(=O)(=O)N1C[C@H](Oc2ccc(C#N)c(F)c2)[C@](O)(CO)C1 [Example 89, 4-(((3S,4R)-1-((4-chloro-1-methyl-1H-pyrazol-5-yl)sulfonyl)-4-hydroxy-4-(hydroxymethyl)pyrrolidin-3-yl)oxy)-2-fluorobenzonitrile]
7.00 to 8.00 | N#Cc1ccc(O[C@H]2CN(S(=O)(=O)c3c(Cl)nc4sccn34)C[C@@]2(O)CO)cc1F [Example 90, 4-(((3S,4R)-1-((6-chloroimidazo[2,1-b]thiazol-5-yl)sulfonyl)-4-hydroxy-4-(hydroxymethyl)pyrrolidin-3-yl)oxy)-2-fluorobenzonitrile]
7.00 to 8.00 | N#Cc1ccc(O[C@H]2CN(S(=O)(=O)c3ccc(Cl)nc3)C[C@@]2(O)CO)cc1F [Example 91, 4-(((3S,4R)-1-((6-chloropyridin-3-yl)sulfonyl)-4-hydroxy-4-(hydroxymethyl)pyrrolidin-3-yl)oxy)-2-fluorobenzonitrile]
8.00 to 10.00 | N#Cc1ccc(O[C@H]2CN(S(=O)(=O)c3ccc(Cl)nc3Cl)C[C@@]2(O)CO)cc1F [Example 92, 4-(((3S,4R)-1-((2,6-dichloropyridin-3-yl)sulfonyl)-4-hydroxy-4-(hydroxymethyl)pyrrolidin-3-yl)oxy)-2-fluorobenzonitrile]
7.00 to 8.00 | C#Cc1ccccc1S(=O)(=O)N1C[C@H](Oc2ccc(C#N)c(F)c2)[C@](O)(CO)C1 [Example 93, 4-(((3S,4R)-1-((2-ethynylphenyl)sulfonyl)-4-hydroxy-4-(hydroxymethyl)pyrrolidin-3-yl)oxy)-2-fluorobenzonitrile]
7.00 to 8.00 | N#Cc1ccc(O[C@H]2CN(S(=O)(=O)c3cccc(Cl)c3Cl)C[C@@]2(O)CO)cc1F [Example 94, 4-(((3S,4R)-1-((2,3-dichlorophenyl)sulfonyl)-4-hydroxy-4-(hydroxymethyl)pyrrolidin-3-yl)oxy)-2-fluorobenzonitrile]
8.00 to 10.00 | N#Cc1ccc(O[C@H]2CN(S(=O)(=O)c3cccc(Cl)c3C#N)C[C@@]2(O)CO)cc1F [Example 95, 4-(((3S,4R)-1-((3-chloro-2-cyanophenyl)sulfonyl)-4-hydroxy-4-(hydroxymethyl)pyrrolidin-3-yl)oxy)-2-fluorobenzonitrile]
7.00 to 8.00 | N#Cc1ccc(O[C@H]2CN(S(=O)(=O)c3c(Cl)cc(C(F)(F)F)cc3Cl)C[C@@]2(O)CO)cc1F [Example 96, 4-(((3S,4R)-1-((2,6-dichloro-4-(trifluoromethyl)phenyl)sulfonyl)-4-hydroxy-4-(hydroxymethyl)pyrrolidin-3-yl)oxy)-2-fluorobenzonitrile]
8.00 to 10.00 | N#Cc1ccc(S(=O)(=O)N2C[C@H](Oc3ccc(C#N)c(F)c3)[C@](O)(CO)C2)c(Cl)c1 [Example 97, 4-(((3S,4R)-1-((2-chloro-4-cyanophenyl)sulfonyl)-4-hydroxy-4-(hydroxymethyl)pyrrolidin-3-yl)oxy)-2-fluorobenzonitrile]
7.00 to 8.00 | N#Cc1ccc(O[C@H]2CN(S(=O)(=O)c3ccc(C(F)F)cc3)C[C@@]2(O)CO)cc1F [Example 98, 4-(((3S,4R)-1-((4-(difluoromethyl)phenyl)sulfonyl)-4-hydroxy-4-(hydroxymethyl)pyrrolidin-3-yl)oxy)-2-fluorobenzonitrile]
7.00 to 8.00 | N#Cc1ccc(O[C@H]2CN(S(=O)(=O)c3ccc(Br)nc3)C[C@@]2(O)CO)cc1F [Example 99, 4-(((3S,4R)-1-((6-bromopyridin-3-yl)sulfonyl)-4-hydroxy-4-(hydroxymethyl)pyrrolidin-3-yl)oxy)-2-fluorobenzonitrile]
8.00 to 10.00 | N#Cc1ccc(O[C@H]2CN(S(=O)(=O)c3ccc(C(F)(F)F)nc3Cl)C[C@@]2(O)CO)cc1F [Example 100, 4-(((3S,4R)-1-((2-chloro-6-(trifluoromethyl)pyridin-3-yl)sulfonyl)-4-hydroxy-4-(hydroxymethyl)pyrrolidin-3-yl)oxy)-2-fluorobenzonitrile]
7.00 to 8.00 | N#Cc1ccc(O[C@H]2CN(S(=O)(=O)c3ccc(Cl)cc3)C[C@@]2(O)CO)cc1F [Example 101, 4-(((3S,4R)-1-((4-chlorophenyl)sulfonyl)-4-hydroxy-4-(hydroxymethyl)pyrrolidin-3-yl)oxy)-2-fluorobenzonitrile]
7.00 to 8.00 | N#Cc1ccc(O[C@H]2CN(S(=O)(=O)c3ccc(Br)cc3)C[C@@]2(O)CO)cc1F [Example 102, 4-(((3S,4R)-1-((4-bromophenyl)sulfonyl)-4-hydroxy-4-(hydroxymethyl)pyrrolidin-3-yl)oxy)-2-fluorobenzonitrile]

pIC50 | Structure (SMILES)
7.00 to 8.00 | N#Cc1ccc(O[C@H]2CN(S(=O)(=O)c3ccc(I)cc3)C[C@@]2(O)CO)cc1F [Example 103, 2-fluoro-4-(((3S,4R)-4-hydroxy-4-(hydroxymethyl)-1-((4-iodophenyl)sulfonyl)pyrrolidin-3-yl)oxy)benzonitrile]
7.00 to 8.00 | COc1cc(C#N)ccc1S(=O)(=O)N1C[C@H](Oc2ccc(C#N)c(F)c2)[C@](O)(CO)C1 [Example 104, 4-(((3S,4R)-1-((4-cyano-2-methoxyphenyl)sulfonyl)-4-hydroxy-4-(hydroxymethyl)pyrrolidin-3-yl)oxy)-2-fluorobenzonitrile]
7.00 to 8.00 | N#Cc1ccc(O[C@H]2CN(S(=O)(=O)c3ccc(Br)cn3)C[C@@]2(O)CO)cc1F [Example 105, 4-(((3S,4R)-1-((5-bromopyridin-2-yl)sulfonyl)-4-hydroxy-4-(hydroxymethyl)pyrrolidin-3-yl)oxy)-2-fluorobenzonitrile]
8.00 to 10.00 | N#Cc1ccc(S(=O)(=O)N2C[C@H](Oc3ccc(Cl)cc3)[C@](O)(CO)C2)c(Cl)c1 [Example 106, 3-chloro-4-(((3R,4S)-4-(4-chlorophenoxy)-3-hydroxy-3-(hydroxymethyl)pyrrolidin-1-yl)sulfonyl)benzonitrile]
7.00 to 8.00 | N#Cc1ccccc1S(=O)(=O)N1C[C@H](Oc2ccc(Cl)cc2)[C@](O)(CO)C1 [Example 107, 2-(((3R,4S)-4-(4-chlorophenoxy)-3-hydroxy-3-(hydroxymethyl)pyrrolidin-1-yl)sulfonyl)benzonitrile]
8.00 to 10.00 | N#Cc1ccc(S(=O)(=O)N2C[C@H](Oc3ccc(Cl)cc3)[C@](O)(CO)C2)c(Br)c1 [Example 108, 3-bromo-4-(((3R,4S)-4-(4-chlorophenoxy)-3-hydroxy-3-(hydroxymethyl)pyrrolidin-1-yl)sulfonyl)benzonitrile]
7.00 to 8.00 | N#Cc1ccc(S(=O)(=O)N2C[C@H](Oc3ccc(Cl)cc3)[C@](O)(CO)C2)cn1 [Example 109, 5-(((3R,4S)-4-(4-chlorophenoxy)-3-hydroxy-3-(hydroxymethyl)pyrrolidin-1-yl)sulfonyl)picolinonitrile]
7.00 to 8.00 | N#Cc1ncccc1S(=O)(=O)N1C[C@H](Oc2ccc(Cl)cc2)[C@](O)(CO)C1 [Example 110, 3-(((3R,4S)-4-(4-chlorophenoxy)-3-hydroxy-3-(hydroxymethyl)pyrrolidin-1-yl)sulfonyl)picolinonitrile]
7.00 to 8.00 | N#Cc1ccc(O[C@H]2CN(S(=O)(=O)c3ccc(CC(F)(F)F)cc3)C[C@@]2(O)CO)cc1F [Example 111, 2-fluoro-4-(((3S,4R)-4-hydroxy-4-(hydroxymethyl)-1-((4-(2,2,2-trifluoroethyl)phenyl)sulfonyl)pyrrolidin-3-yl)oxy)benzonitrile]
7.00 to 8.00 | N#Cc1ccc(O[C@H]2CN(S(=O)(=O)c3ccc(C(F)(F)F)s3)C[C@@]2(O)CO)cc1F [Example 112, 2-fluoro-4-(((3S,4R)-4-hydroxy-4-(hydroxymethyl)-1-((5-(trifluoromethyl)thiophen-2-yl)sulfonyl)pyrrolidin-3-yl)oxy)benzonitrile]
8.00 to 10.00 | N#Cc1ccc(S(=O)(=O)N2C[C@H](Oc3ccc(C#N)c(F)c3)[C@](O)(CO)C2)c(F)c1 [Example 113, 4-(((3S,4R)-1-((4-cyano-2-fluorophenyl)sulfonyl)-4-hydroxy-4-(hydroxymethyl)pyrrolidin-3-yl)oxy)-2-fluorobenzonitrile]
8.00 to 10.00 | N#Cc1ccc(O[C@H]2CN(S(=O)(=O)c3ccc(I)cc3C#N)C[C@@]2(O)CO)cc1F [Example 114, 4-(((3S,4R)-1-((2-cyano-4-iodophenyl)sulfonyl)-4-hydroxy-4-(hydroxymethyl)pyrrolidin-3-yl)oxy)-2-fluorobenzonitrile]
8.00 to 10.00 | N#Cc1ccc(O[C@H]2CN(S(=O)(=O)c3ccc(I)cc3Cl)C[C@@]2(O)CO)cc1F [Example 115, 4-(((3S,4R)-1-((2-chloro-4-iodophenyl)sulfonyl)-4-hydroxy-4-(hydroxymethyl)pyrrolidin-3-yl)oxy)-2-fluorobenzonitrile]
7.00 to 8.00 | N#Cc1ccc(O[C@H]2CN(S(=O)(=O)c3ccc(C(F)(F)F)c(F)c3)C[C@@]2(O)CO)cc1F [Example 116, 2-fluoro-4-(((3S,4R)-1-((3-fluoro-4-(trifluoromethyl)phenyl)sulfonyl)-4-hydroxy-4-(hydroxymethyl)pyrrolidin-3-yl)oxy)benzonitrile]
7.00 to 8.00 | N#Cc1ccc(O[C@H]2CN(S(=O)(=O)c3ccccc3Br)C[C@@]2(O)CO)cc1F [Example 117, 4-(((3S,4R)-1-((2-bromophenyl)sulfonyl)-4-hydroxy-4-(hydroxymethyl)pyrrolidin-3-yl)oxy)-2-fluorobenzonitrile]
